Laboratory results published in patent US7897582B2, “Oligonucleotide compositions and methods for the modulation of the expression of B7 protein” (Isis Pharmaceuticals, Inc., priority 2003, dated 2011).
Strand notation (5' to 3'): a small letter for the sugar, then the base; units joined by * are phosphorothioate-linked, units joined directly phosphodiester-linked; [ ] holds rarer units or linkages, { } end groups; capitals alone tell only the bases. e = 2'-O-(2-methoxyethyl) (MOE); [5mC] = 5-methylcytosine; d = 2'-deoxy (DNA)

How the values were obtained:
Assay type in all cases: cell-based
human B7-2 = test: Cell surface expression of B7-2 in transfected COS-7 cells by flow cytometry; details: for % B7-2 EXPRESSION: human B7 cell surface expression, Table 16
Experimental: (§1) A T-175 flask was seeded at 75% confluency with COS-7 cells (ATCC accession No. CRL 1651). The plasmid pcB7-1 was introduced into cells by standard calcium phosphate transfection. Following a 4 hour transfection, the cells were trypsinized and seeded in 12-well dishes at 80% confluency. The cells were allowed to adhere to the plastic for 1 hour and were then washed with phosphate-buffered saline (PBS). OptiMEM™ (GIBCO-BRL, Gaithersburg, Md.) medium was added along with 15 μg/mL of Lipofectin™ (GIBCO-BRL, Gaithersburg, Md.) and oligonucleotide at the indicated concentrations. After four additional hours, the cells were washed with phosphate buffered saline (PBS) and incubated with fresh oligonucleotide at the same concentration in DMEM (Dulbecco et al., Virol., 1959, 8, 396; Smith et al., Virol., 1960, 12, 185) with 10% fetal calf sera (FCS).
(§2) In order to monitor the effects of oligonucleotides on cell surface expression of B7-1, treated COS-7 cells were harvested by brief trypsinization 24-48 hours after oligonucleotide treatment. The cells were washed with PBS, then resuspended in 100 μL of staining buffer (PBS, 0.2% BSA, 0.1% azide) with 5 μL conjugated anti-B7-1-antibody (i.e., anti-hCD80-FITC, Ancell, Bayport, Minn.; FITC: fluorescein isothiocyanate). The cells were stained for 30 minutes at 4° C., washed with PBS, resuspended in 300 μL containing 0.5% paraformaldehyde. Cells were harvested and the fluorescence profiles were determined using a flow cytometer.
In an initial screen, the ability of hB7-2 oligonucleotides to inhibit B7-2 expression was evaluated by measuring the cell surface expression of B7-2 in transfected COS-7 cells by flow cytometry. The methods used were similar to those given in Example 2, with the exceptions that (1) COS-7 cells were transfected with the plasmids pbcB7-2 or BBG-58, a human ICAM-1 (CD54) expression vector (R&D Systems, Minneapolis, Minn.) introduced into cells by standard calcium phosphate transfection, (2) the oligonucleotides used were those described in Table 2, and (3) a conjugated anti-B7-2 antibody (i.e., anti-hCD86-FITC or anti-CD86-PE, PharMingen, San Diego, Calif.; PE: phycoerythrin) was used during flow cytometry.
(§3) B7 antisense oligonucleotides were tested for their effect on cell surface expression of both B7-1 and B7-2. Cell surface expression was measured as described in Example 1. Experiments were done for both human B7 and mouse B7.
The oligonucleotides were screened as described in Example 2 except that the concentration of oligonucleotide was varied as shown in Table 19.

Human B7-1 mRNA = Human B7-1 mRNA expression in COS-7 cells, screened as in Example 4
human B7-1 = test: Cell surface expression of B7-1 in pcB7-1-transfected COS-7 cells by flow cytometry; details: for % B7-1 EXPRESSION: human B7 cell surface expression, Table 16; for % Surface Inhibition / % Surface Expression: COS-7 cells, B7-1 cell surface; for % Surface Expression: basal = 100%
Experimental: The ability of oligonucleotides to inhibit B7-1 expression was evaluated by measuring the cell surface expression of B7-1 in transfected COS-7 cells by flow cytometry.
as §1, §2, §3
The oligonucleotides were screened as described in Example 2 except that the concentration of oligonucleotide was varied as shown in Table 18.

22324 (eG*eG*e[5mC]*e[5mC]*eA*dT*dA*dT*dA*dT*dT*d[5mC]*dA*dT*dG*eT*e[5mC]*e[5mC]*e[5mC]*e[5mC]; antisense) [compound 22324]
% B7-2 EXPRESSION (human B7-2): 91%
% mRNA EXPRESSION (Human B7-1 mRNA; human B7-1 mRNA, Table 7): 46%
% B7-1 EXPRESSION (human B7-1): 37%

22325 (eG*e[5mC]*e[5mC]*eA*eG*dG*dA*dT*d[5mC]*dA*d[5mC]*dA*dA*dT*dG*eG*eA*eG*eA*eG) [compound 22325]
% B7-2 EXPRESSION (human B7-2): 89%
% mRNA EXPRESSION (Human B7-1 mRNA; human B7-1 mRNA, Table 7): 46%
% B7-1 EXPRESSION (human B7-1): 32%

22334 (antisense eA*eA*eG*e[5mC]*eA*dG*dT*dA*dG*dG*dT*d[5mC]*dA*dG*dG*e[5mC]*eA*eG*e[5mC]*eA) [compound 22334]
% B7-2 EXPRESSION (human B7-2): 92%
% mRNA EXPRESSION (Human B7-1 mRNA; human B7-1 mRNA, Table 7): 43%
% B7-1 EXPRESSION (human B7-1): 28%

22335 (antisense e[5mC]*e[5mC]*eT*eT*eG*d[5mC]*dT*dT*d[5mC]*dT*dG*d[5mC]*dG*dG*dA*e[5mC]*eA*e[5mC]*eT*eG) [compound 22335]
% B7-2 EXPRESSION (human B7-2): 95%
% mRNA EXPRESSION (Human B7-1 mRNA; 10 nM, COS-7, Table 8): 81%
% mRNA INHIBITION (Human B7-1 mRNA; 10 nM, COS-7, Table 8): 19%
% mRNA EXPRESSION (Human B7-1 mRNA; 30 nM, COS-7, Table 8): 63%
% mRNA INHIBITION (Human B7-1 mRNA; 30 nM, COS-7, Table 8): 37%
% mRNA EXPRESSION (Human B7-1 mRNA; 100 nM, COS-7, Table 8): 43%
% mRNA INHIBITION (Human B7-1 mRNA; 100 nM, COS-7, Table 8): 57%
% mRNA EXPRESSION (Human B7-1 mRNA; 300 nM, COS-7, Table 8): 35%
% mRNA INHIBITION (Human B7-1 mRNA; 300 nM, COS-7, Table 8): 65%
% mRNA EXPRESSION (Human B7-1 mRNA; human B7-1 mRNA, Table 7): 43%
% Surface Inhibition (human B7-1; dose 10 nM): 19%
% Surface Expression (human B7-1; dose 10 nM): 81%
% Surface Inhibition (human B7-1; dose 30 nM): 31%
% Surface Expression (human B7-1; dose 30 nM): 69%
% Surface Inhibition (human B7-1; dose 100 nM): 53%
% Surface Expression (human B7-1; dose 100 nM): 47%
% Surface Inhibition (human B7-1; dose 300 nM): 62%
% Surface Expression (human B7-1; dose 300 nM): 38%
% B7-1 EXPRESSION (human B7-1): 23%

22337 (antisense eT*eG*eA*e[5mC]*eG*dG*dA*dG*dG*d[5mC]*dT*dA*d[5mC]*d[5mC]*dT*eT*e[5mC]*eA*eG*eA) [compound 22337]
% B7-2 EXPRESSION (human B7-2): 101%
% mRNA EXPRESSION (Human B7-1 mRNA; human B7-1 mRNA, Table 7): 42%
% B7-1 EXPRESSION (human B7-1): 48%

ISIS 13800: phosphorothioate oligonucleotide to human B7-1 mRNA 0158-0177; 5′ UTR; SEQ ID NO: 25 (antisense dA*dC*dA*dC*dA*dC*dA*dG*dA*dG*dA*dT*dT*dG*dG*dA*dG*dG*dG*dT)
inhibition of B7-1 expression (human B7-1; COS-7 cells transiently expressing B7-1 cDNA, FIG. 1): essentially no inhibition
inhibition of cell surface expression of B7-1 at various concentrations (human B7-1; dose response, FIG. 2): essentially inactive

ISIS 13872: scrambled control of ISIS 13812; SEQ ID NO: 52 (SEQ ID NO: 37) (antisense dA*dG*dT*dC*dC*dT*dA*dC*dT*dA*dC*dC*dA*dG*dC*dC*dG*dC*dC*dT) [reference compound]
effect on B7-2 expression (specificity) (human B7-2; FIG. 5): essentially no activity
effect on B7-1 expression (specificity) (human B7-1; FIG. 5): essentially no activity
